Results reported in patent US8039458B2, “HIV integrase inhibitors” (priority 2005, dated 2011).
pEC50, pKi: −log10 of the molar value.

Assays:
[1] = biological target: T1, HIV-Integrase (Human immunodeficiency virus type 1 group M subtype B, UniProt P12497); experiment: HIV-Integrase binding assay (competition with [3H]-compound I, SPA); settings: competitive binding vs [3H]-compound I to purified integrase; Ki by Cheng and Prusoff; read-out: in vitro binding
T1 construct: Recombinant integrase (0.26 ng) was incubated with the beads
Method: HIV-Integrase Inhibition Activity. To evaluate in-vitro activity against HIV-integrase, 5 pmole of biotin labeled substrate DNA was bound to 100 μg of Streptavidin coated PVT SPA beads (Amersham Pharmacia Biotech). Recombinant integrase (0.26 ng) was incubated with the beads for 90 min at 37° C. Unbound enzyme was removed by washing the complex followed by addition of inhibitors and 0.1 fmol of P33 labeled target DNA. The reaction was stopped by adding EDTA to a final concentration of 10 mM. Samples were counted in TopCountNXT (Packard) and the CPM was used as a measure of integration. The reaction condition was as described in A. Engelman and R. Craigie, J. Virol. 69, 5908-5911 (1995). The sequences of substrate and target DNA were described in Nucleic Acid Research 22,1121-1122 (1994).
HIV-Integrase binding assay. In this assay competitive binding experiments with test compounds and a radiolabeled integrase inhibitor (compound I) are performed against purified integrase. SPA bead/DNA/enzyme complexes were prepared as for the integrase inhibition assay except, to each well, 0.69 μl of integrase enzyme ([…]) was used per 2 μl of LTR DNA-attached scintillation proximity beads (stock 50 mg/ml). Binding reactions were carried out in 96-well white polystyrene assay plates (Corning, #3600). The following was added sequentially to each well: 20 μl of water or 20 μl of human serum (Cellgro Cat# 35-060-CL), 5 μl of serially diluted compound (in 50% DMSO/50% integrase SPA buffer), 5 μl of [^3H]-compound I (6,000 cpm/μl in SPA buffer) and 20 μl of bead/DNA/enzyme complex. The plates were shaken for 2 hours and then allowed to sit at room temperature without shaking overnight. The [^3H]-compound I binding was measured using a Topcount scintillation counter. Cheng and Prusoff equations were used to convert the inhibition of compound 1 binding into the corresponding Ki value. Activity equal to A refers to a compound having Ki=0.001 to 0.003 μM while B and C denote compounds having Ki=0.003 to 0.05 μM and Ki≧0.050 μM respectively.

[2] = tested on: recombinant NL-Rluc virus; experiment: Inhibition of HIV replication (NL-RLuc virus, Renilla luciferase); format: cell-based; settings: Human immunodeficiency virus 1, read-out: antiviral actitively

Row | Compound | pKi [1] | pEC50 [2]
1 | CC1(C)COCCn2c1nc(C(=O)NCc1ccc(F)cc1S(C)(=O)=O)c(O)c2=O [Example 3, N-((4-Fluoro-2-(methylsulfonyl)phenyl)methyl)-3-hydroxy-10,10-dimethyl-4-oxo-6,7,9,10-tetrahydro-4H-pyrimido[1,2-d][1,4]oxazepine-2-carboxamide] | 7.30 to 8.52 | 8.00 to 9.00
2 | CC1(C)COCCn2c1nc(C(=O)NCc1ccc(F)cc1)c(O)c2=O [Example 1, N-((4-Fluorophenyl)methyl)-3-hydroxy-10,10-dimethyl-4-oxo-6,7,9,10-tetrahydro-4H-pyrimido[1,2-d][1,4]oxazepine-2-carboxamide] | 7.30 to 8.52 | 7.30 to 8.00
3 | O=C(NCc1ccc(F)cc1-n1cncn1)c1nc2n(c(=O)c1O)CCOCC21CCC1 [Example 9, N-((4-fluoro-2-(1H-1,2,4-triazol-1-yl)phenyl)methyl)-3′-hydroxy-4′-oxo-6′,7′-dihydro-4′H-spiro[cyclobutane-1,10′-pyrimido[1,2-d][1,4]oxazepine]-2′-carboxamide] | 8.52 to 9.00 | 8.00 to 9.00
4 | O=C(NCc1ccc(F)cc1)c1nc2n(c(=O)c1O)CCOCC21CCC1 [Example 7, N-((4-fluorophenyl)methyl)-3′-hydroxy-4′-oxo-6′,7′-dihydro-4′H-spiro[cyclobutane-1,10′-pyrimido[1,2-d][1,4]oxazepine]-2′-carboxamide] | 8.52 to 9.00 | 7.30 to 8.00
5 | Cc1cnnn1-c1cc(F)ccc1CNC(=O)c1nc2n(c(=O)c1O)CCOCC21CCOCC1 [Example 37, N-((4-fluoro-2-(5-methyl-1H-1,2,3-triazol-1-yl)phenyl)methyl)-3′-hydroxy-4′-oxo-2,3,5,6,6′,7′-hexahydro-4′H-spiro[pyran-4,10′-pyrimido[1,2-d][1,4]oxazepine]-2′-carboxamide] | 7.30 to 8.52 | 7.30 to 8.00
6 | CS(=O)(=O)c1cc(F)ccc1CNC(=O)c1nc2n(c(=O)c1O)CCOCC21CCC1 [Example 8, N-((4-fluoro-2-(methylsulfonyl)phenyl)methyl)-3′-hydroxy-4′-oxo-6′,7′-dihydro-4′H-spiro[cyclobutane-1,10′-pyrimido[1,2-d][1,4]oxazepine]-2′-carboxamide] | 8.52 to 9.00 | 8.00 to 9.00
7 | Cn1nnc(-c2cc(F)ccc2CNC(=O)c2nc3n(c(=O)c2O)CCOCC32CCCC2)n1 [Example 15, N-((4-fluoro-2-(2-methyl-2H-tetrazol-5-yl)phenyl)methyl)-3′-hydroxy-4′-oxo-6′,7′-dihydro-4′H-spiro[cyclopentane-1,10′-pyrimido[1,2-d][1,4]oxazepine]-2′-carboxamide] | 8.52 to 9.00 | 8.00 to 9.00
8 | COCc1ncn(-c2cc(F)ccc2CNC(=O)c2nc3n(c(=O)c2O)CCOCC32CCOCC2)n1 [Example 26, N-((4-fluoro-2-(3-((methyloxy)methyl)-1H-1,2,4-triazol-1-yl)phenyl)methyl)-3′-hydroxy-4′-oxo-2,3,5,6,6′,7′-hexahydro-4′H-spiro[pyran-4,10′-pyrimido[1,2-d][1,4]oxazepine]-2′-carboxamide] | 7.30 to 8.52 | 7.30 to 8.00
9 | Cc1nc(-c2cc(F)ccc2CNC(=O)c2nc3n(c(=O)c2O)CCOCC32CCOCC2)n(C)n1 [Example 41, N-((2-(1,3-dimethyl-1H-1,2,4-triazol-5-yl)-4-fluorophenyl)methyl)-3′-hydroxy-4′-oxo-2,3,5,6,6′,7′-hexahydro-4′H-spiro[pyran-4,10′-pyrimido[1,2-d][1,4]oxazepine]-2′-carboxamide] | 7.30 to 8.52 | 7.30 to 8.00
10 | CCc1ncnn1-c1cc(F)ccc1CNC(=O)c1nc2n(c(=O)c1O)CCOCC21CCCC1 [Example 22, N-((2-(5-ethyl-1H-1,2,4-triazol-1-yl)-4-fluorophenyl)methyl)-3′-hydroxy-4′-oxo-6′,7′-dihydro-4′H-spiro[cyclopentane-1,10′-pyrimido[1,2-d][1,4]oxazepine]-2′-carboxamide] | 7.30 to 8.52 | 8.00 to 9.00
11 | O=C(NCc1ccc(F)cc1)c1nc2n(c(=O)c1O)CCOCC21CCOCC1 [Example 32, N-((4-fluorophenyl)methyl)-3′-hydroxy-4′-oxo-2,3,5,6,6′,7′-hexahydro-4′H-spiro[pyran-4,10′-pyrimido[1,2-d][1,4]oxazepine]-2′-carboxamide] | 7.30 to 8.52 | 7.30 to 8.00
12 | CNC(=O)c1cc(F)ccc1CNC(=O)c1nc2n(c(=O)c1O)CCOCC21CCOCC1 [Example 33, N-((4-fluoro-2-((methylamino)carbonyl)phenyl)methyl)-3′-hydroxy-4′-oxo-2,3,5,6,6′,7′-hexahydro-4′H-spiro[pyran-4,10′-pyrimido[1,2-d][1,4]oxazepine]-2′-carboxamide] | 7.30 to 8.52 | 8.00 to 9.00
13 | Cc1nc(C)n(-c2cc(F)ccc2CNC(=O)c2nc3n(c(=O)c2O)CCOCC32CCC2)n1 [Example 11, N-((2-(3,5-dimethyl-1H-1,2,4-triazol-1-yl)-4-fluorophenyl)methyl)-3′-hydroxy-4′-oxo-6′,7′-dihydro-4′H-spiro[cyclobutane-1,10′-pyrimido[1,2-d][1,4]oxazepine]-2′-carboxamide] | 7.30 to 8.52 | 8.00 to 9.00
14 | COP(=O)(OC)c1cc(F)ccc1CNC(=O)c1nc2n(c(=O)c1O)CCOCC2(C)C [Example 17, Dimethyl (5-fluoro-2-((((3-hydroxy-10,10-dimethyl-4-oxo-6,7,9,10-tetrahydro-4H-pyrimido[1,2-d][1,4]oxazepin-2-yl)carbonyl)amino)methyl)phenyl)-phosphonate] | 7.30 to 8.52 | 8.00 to 9.00
15 | CS(=O)(=O)c1cc(F)ccc1CNC(=O)c1nc2n(c(=O)c1O)CCOCC21CCCC1 [Example 13, N-((4-fluoro-2-(methylsulfonyl)phenyl)methyl)-3′-hydroxy-4′-oxo-6′,7′-dihydro-4′H-spiro[cyclopentane-1,10′-pyrimido[1,2-d][1,4]oxazepine]-2′-carboxamide] | 8.52 to 9.00 | 8.00 to 9.00
16 | Cc1ncn(-c2cc(F)ccc2CNC(=O)c2nc3n(c(=O)c2O)CCOCC32CCCC2)n1 [Example 21, N-((4-fluoro-2-(3-methyl-1H-1,2,4-triazol-1-yl)phenyl)methyl)-3′-hydroxy-4′-oxo-6′,7′-dihydro-4′H-spiro[cyclopentane-1,10′-pyrimido[1,2-d][1,4]oxazepine]-2′-carboxamide] | 8.52 to 9.00 | 8.00 to 9.00
17 | O=C(NCc1ccc(F)cc1-n1cnc(CO)n1)c1nc2n(c(=O)c1O)CCOCC21CCOCC1 [Example 25, N-((4-fluoro-2-(3-(hydroxymethyl)-1H-1,2,4-triazol-1-yl)phenyl)methyl)-3′-hydroxy-4′-oxo-2,3,5,6,6′,7′-hexahydro-4′H-spiro[pyran-4,10′-pyrimido[1,2-d][1,4]oxazepine]-2′-carboxamide] | 7.30 to 8.52 | < 7.30
18 | Cc1cnnn1-c1cc(F)ccc1CNC(=O)c1nc2n(c(=O)c1O)CCOCC2(C)C [Example 19, N-(4-fluoro-2-(5-methyl-1H-1,2,3-triazol-1-yl)benzyl)-3-hydroxy-10,10-dimethyl-4-oxo-6,7,9,10-tetrahydro-4H-pyrimido[1,2-d][1,4]oxazepine-2-carboxamide] | 7.30 to 8.52 | 8.00 to 9.00
19 | O=C(NCc1ccc(F)cc1)c1nc2n(c(=O)c1O)CCOCC21CCCC1 [Example 12, N-((4-fluorophenyl)methyl)-3′-hydroxy-4′-oxo-6′,7′-dihydro-4′H-spiro[cyclopentane-1,10′-pyrimido[1,2-d][1,4]oxazepine]-2′-carboxamide] | 8.52 to 9.00 | 8.00 to 9.00
20 | Cc1ncn(-c2cc(F)ccc2CNC(=O)c2nc3n(c(=O)c2O)CCOCC32CCOCC2)n1 [Example 35, N-((4-fluoro-2-(3-methyl-1H-1,2,4-triazol-1-yl)phenyl)methyl)-3′-hydroxy-4′-oxo-2,3,5,6,6′,7′-hexahydro-4′H-spiro[pyran-4,10′-pyrimido[1,2-d][1,4]oxazepine]-2′-carboxamide] | 7.30 to 8.52 | 8.00 to 9.00
21 | O=C(NCc1ccc(F)cc1-n1cncn1)c1nc2n(c(=O)c1O)CCOCC21CCCC1 [Example 14, N-((4-fluoro-2-(1H-1,2,4-triazol-1-yl)phenyl)methyl)-3′-hydroxy-4′-oxo-6′,7′-dihydro-4′H-spiro[cyclopentane-1,10′-pyrimido[1,2-d][1,4]oxazepine]-2′-carboxamide] | 8.52 to 9.00 | 8.00 to 9.00
22 | Cc1nc(C)n(-c2cc(F)ccc2CNC(=O)c2nc3n(c(=O)c2O)CCOCC32CCCC2)n1 [Example 24, N-((2-(3,5-dimethyl-1H-1,2,4-triazol-1-yl)-4-fluorophenyl)methyl)-3′-hydroxy-4′-oxo-6′,7′-dihydro-4′H-spiro[cyclopentane-1,10′-pyrimido[1,2-d][1,4]oxazepine]-2′-carboxamide] | 7.30 to 8.52 | 8.00 to 9.00
